This note sets out measurements from patent US20240254117A1, “PYRIMIDO-HETEROCYCLIC COMPOUNDS, AND PREPARATION METHOD THEREFOR AND USE THEREOF” (SHANGHAI RINGENE BIOPHARMA CO., LTD., priority 2020, published 2024).

Each structure is given as a SMILES string. Like-named read-outs stand apart in the source and are kept apart here.

In the assay the test system is pERK. The assay can be described thus: p-ERK level in PC9 cells (AlphaLISA SureFire Ultra p-ERK1/2). It is filed as cell-based. The note with it: Homo sapiens, read-out: SOS1 pERK IC50. How it is done:
PC9 cells were seeded in 384-well cell culture plate (40 μL/well) according to a certain concentration and placed in a cell culture incubator with 37° C. and 5% CO2 overnight. On the next day, the plate was added with serially diluted test compounds (5 concentrations, 3-fold dilution, the highest concentration was 10 uM) for 1 hour, and then the lysate containing protease and phosphatase inhibitor was added to lyse the cells-extracted proteins, cellular pERK levels were measured using the AlphaLISASureFire Ultra p ERK1/2 assay kit (PerkinElmer). The standard AlphaLISA settings on the Envision plate reader (PerkinElmer) was used to read the signal. Raw data were analyzed in Excel (Microsoft) and Prism (GraphPad). The signal was plotted against the common logarithm of compound concentration and IC50 was calculated by fitting a four parameter non-linear regression curve.

Setting [1] is: PC-9, PC9 cells, 1 hour compound treatment.

`COC1(c2cc3c(N[C@H](C)c4cc(N)cc(C(F)(F)F)c4)nc(C)nc3n3ccnc23)CCOCC1` [Example 75]: the IC50 under setting [1] is less than 1000 nM. On to `COC1(c2cc3c(N[C@H](C)c4cc(N)cc(C(F)(F)F)c4)nc(C)nc3n3ccnc23)CCN(C(C)=O)CC1` [Example 76], for which the 50% inhibitory concentration (IC50) under setting [1] is less than 1000 nM.

In the case of `COC1(c2cc3c(N[C@H](C)c4cc(N)cc(C(F)(F)F)c4)nc(C)nc3n3ccnc23)CCS(=O)(=O)CC1` [Example 77], the IC50 under setting [1] was less than 1000 nM.

In the case of `Cc1nc(N[C@H](C)c2cc(N)cc(C(F)(F)F)c2)c2cc(C3(C#N)CCS(=O)(=O)CC3)c3nccn3c2n1` [Example 78], the concentration for half-maximal inhibition (IC50) under setting [1] is less than 1000 nM. Same read-out and setting: to `COC1(c2cc3c(N[C@H](C)c4cccc(C(F)(F)F)c4C)nc(C)nc3n3ccnc23)CCOCC1` [Example 79] belongs less than 1000 nM. Still for that read-out and setting: the figure for `Cc1nc(N[C@H](C)c2cccc(C(F)(F)F)c2C)c2cc(C3(C#N)CCS(=O)(=O)CC3)c3nccn3c2n1` [Example 80] is less than 1000 nM; for `COC1(c2cc3c(N[C@H](C)c4cccc(C(F)(F)F)c4C)nc(C)nc3n3ccnc23)CCN(C(C)C)CC1` [Example 81] it is less than 1000 nM. As to `CC(=O)N1CCC(O)(c2cc3c(N[C@H](C)c4cc(N)cc(C(F)(F)F)c4)nc(C)nc3n3ccnc23)CC1` [Example 85, (R)-1-(4-(4-((1-(3-amino-5-(trifluoromethyl)phenyl)ethyl)amino)-2-methylimidazole [1′,2′:1,6]pyrido [2,3-d]pyrimidin-6-yl)-4-hydroxypiperidin-1-yl) ethyl-1-one], the IC50 (PC-9, 1 h) is less than 1000 nM.

As to `COC1(c2cc3c(N[C@H](C)c4cc(N)cc(C(F)(F)F)c4)nc(C)nc3n3ccnc23)CCN(C(=O)C(C)C)CC1` [Example 89], the IC50 under setting [1] was less than 1000 nM. Turning to `Cc1nc(N[C@H](C)c2cc(N)cc(C(F)(F)F)c2)c2cc(C3(C#N)CCN(C(=O)C(C)C)CC3)c3nccn3c2n1` [Example 90], the 50% inhibitory concentration (IC50) under setting [1] is less than 1000 nM. `COC1(c2cc3c(N[C@H](C)c4cc(N)cc(C(F)(F)F)c4)nc(C)nc3n3ccnc23)CC2CCC(C1)N2C(=O)C(C)C` (stereo partly shown) [Example 91]: the half-inhibitory concentration (IC50) (PC-9, 1 h) was less than 1000 nM. Take `COC1(c2cc3c(N[C@H](C)c4cc(N)cc(C(F)(F)F)c4)nc(C)nc3n3ccnc23)CC2CCC(C1)N2C` (stereo partly shown) [Example 92]: the IC50 (PC-9, 1 h) was less than 1000 nM. As to `COC1(c2cc3c(N[C@H](C)c4cc(N)cc(C(F)(F)F)c4)nc(C)nc3n3ccnc23)CC2CCC(C1)N2C(C)C` (stereo partly shown) [Example 93], the IC50 (PC-9, 1 h) is less than 1000 nM.
